Results published in publication PMC11176561 (Computational and Structural Biotechnology Journal, 2024).

Tested on: ceftazidime-resistant E. coli E24
Assay: E. coli-induced mouse bacteremia
[1] = ceftazidime 5 mg/kg i.p., 8 h of drug treatment

## CC(C)(O/N=C(\C(=O)N[C@@H]1C(=O)N2C(C(=O)[O-])=C(C[n+]3ccccc3)CS[C@H]12)c1csc(N)n1)C(=O)O [Ceftazidime]
Ceftazidime 5 mg/kg i.p. 2 h after i.p. E. coli E24
  loss of mice (mortality): 85.7%
[1]
  bacterial load in the blood: approximately 1 × 10^9 CFU/ml
  bacterial load in the lung, liver, spleen, and kidney tissues: approximately 1 × 10^9 CFU/g
